Where two headings read alike, the source gives them in different places.
What was measured:
DLD1 BRCA2 (−/−) cells = experiment: 7-day cell viability assay (CellTiter-Glo), DLD1 BRCA2 (−/−); assay type: cell-based, human; conditions: n=2, read-out: Viability IC50 (uM) DLD1 BRCA2 null
Procedure, shortened: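 7-day growth assay in DLD1 cells with or without BRCA2; seeding densities chosen to keep log-linear growth. Compound: 10 uM top, 3-fold, 9 points. Endpoint: CTG ATP luminescence at RT.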

DLD1 WT cells = experiment: 7-day cell viability assay (CellTiter-Glo), DLD1 parental (WT); assay type: cell-based, human; conditions: n=2
[1] = target: biotinylated Avi-POLθ[2-894] (Homo sapiens (Human), UniProt O75417); experiment: POLθ ATPase assay (ADP-Glo); conditions: n=2, read-out: Biochemical ATPase ADPGlo IC50
[2] = Homo sapiens, DLD-1, 168 h, 7-day viability

Chain of biotinylated Avi-POLθ[2-894] (O75417 2-894): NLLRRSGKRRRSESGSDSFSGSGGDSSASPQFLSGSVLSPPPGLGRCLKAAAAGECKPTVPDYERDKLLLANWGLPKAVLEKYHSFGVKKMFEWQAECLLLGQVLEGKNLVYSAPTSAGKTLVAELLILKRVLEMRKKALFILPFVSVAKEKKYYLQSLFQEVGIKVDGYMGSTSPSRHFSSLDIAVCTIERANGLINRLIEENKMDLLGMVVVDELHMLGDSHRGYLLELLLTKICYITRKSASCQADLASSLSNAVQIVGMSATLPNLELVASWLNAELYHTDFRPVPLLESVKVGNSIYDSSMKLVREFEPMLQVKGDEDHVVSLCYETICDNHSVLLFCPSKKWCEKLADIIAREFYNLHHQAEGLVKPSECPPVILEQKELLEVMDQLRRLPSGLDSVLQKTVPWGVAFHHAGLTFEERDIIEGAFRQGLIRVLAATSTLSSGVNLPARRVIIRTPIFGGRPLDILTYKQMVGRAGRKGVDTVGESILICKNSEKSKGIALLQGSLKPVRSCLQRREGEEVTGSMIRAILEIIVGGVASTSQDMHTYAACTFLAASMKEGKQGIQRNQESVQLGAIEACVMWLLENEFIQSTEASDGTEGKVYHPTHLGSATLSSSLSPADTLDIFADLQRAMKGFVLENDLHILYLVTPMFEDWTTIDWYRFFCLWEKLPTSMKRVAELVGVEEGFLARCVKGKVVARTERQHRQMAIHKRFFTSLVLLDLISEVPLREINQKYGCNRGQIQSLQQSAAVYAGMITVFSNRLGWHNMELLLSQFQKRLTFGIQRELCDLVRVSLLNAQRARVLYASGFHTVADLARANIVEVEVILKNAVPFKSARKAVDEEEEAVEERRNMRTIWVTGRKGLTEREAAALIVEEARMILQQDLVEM

| Molecule | IC50 (DLD1 BRCA2 (−/−) cells; [2]) | IC50 (DLD1 WT cells; [2]) | IC50 [1] | IC50 (DLD1 BRCA2 (−/−) cells; 7-day viability) | IC50 (DLD1 WT cells; 7-day viability) | IC50 (DLD1 BRCA2 (−/−) cells; 7-day CellTiter-Glo) | IC50 (DLD1 WT cells; 7-day CellTiter-Glo) | IC50 ([1]; POLθ ATPase, ADP-Glo) |
| --- | --- | --- | --- | --- | --- | --- | --- | --- |
| COc1cnc(Cl)cc1-c1cc(C)ncc1C(=O)Nc1nc2c(s1)CN(C(=O)C1CCC(OC(F)F)C1)C2 (stereo not drawn) | 0.001 to 0.1 µM | ≥ 10 µM | 1 to 15 nM |  |  |  |  |  |
| COc1cnc(Cl)cc1-c1cc(C)ncc1C(=O)Nc1nc2c(s1)CN(C(=O)c1cc(C)nn1C(F)F)C2 | 0.1 to 0.25 µM | ≥ 10 µM | 1 to 15 nM |  |  |  |  |  |
| COc1cn2cncc2cc1-c1cc(C)ncc1C(=O)Nc1nc2c(s1)CN(C(=O)c1c(Cl)cnn1C)C2 | 0.1 to 0.25 µM | ≥ 10 µM | 1 to 15 nM |  |  |  |  |  |
| COc1cnc(Cl)cc1-c1cc(C)ncc1C(=O)Nc1nc2c(s1)CN(C(=O)[C@@H]1CCCOC1)C2 | 0.5 to 2 µM | ≥ 10 µM | 1 to 15 nM |  |  |  |  |  |
| COc1cnc(Cl)cc1-c1cc(C)ncc1C(=O)Nc1nc2c(s1)CN(C(=O)c1ccncc1)C2 | 0.25 to 0.5 µM | ≥ 10 µM | 1 to 15 nM |  |  |  |  |  |
| COc1cnc(Cl)cc1-c1cc(C)ncc1C(=O)Nc1nc2c(s1)CN(C(=O)c1cn(C)nc1OC)C2 | 0.25 to 0.5 µM | ≥ 10 µM | 1 to 15 nM |  |  |  |  |  |
| COc1ccc(C#N)cc1-c1cc(C)ncc1C(=O)Nc1nc2c(s1)CN(C(=O)c1ccnc(C)c1)C2 | ≥ 2 µM | ≥ 10 µM | 1 to 15 nM |  |  |  |  |  |
| COc1cnc(Cl)cc1-c1cc(C)ncc1C(=O)Nc1nc2c(s1)CN(C(=O)c1ccccn1)C2 | 0.1 to 0.25 µM | ≥ 10 µM | 1 to 15 nM |  |  |  |  |  |
| COc1ccc(C#N)cc1-c1cc(C)ncc1C(=O)Nc1nc2c(s1)CN(C(=O)c1cc(C)ccn1)C2 | 0.5 to 2 µM | ≥ 10 µM | 1 to 15 nM |  |  |  |  |  |
| COc1cnc(Cl)cc1-c1cc(C)ncc1C(=O)Nc1nc2c(s1)CN(C(=O)c1ncc(Cl)cc1OC)C2 | 0.001 to 0.1 µM | ≥ 10 µM | 1 to 15 nM |  |  |  |  |  |
| COc1cnc(Cl)cc1-c1cc(C)ncc1C(=O)Nc1nc2c(s1)CN(C(=O)c1ncc(C(F)F)cc1Cl)C2 | 0.1 to 0.25 µM | ≥ 10 µM | 1 to 15 nM |  |  |  |  |  |
| COc1cnc(Cl)cc1-c1cc(C)ncc1C(=O)Nc1nc2c(s1)CN(C(=O)c1cccc3ccnn13)C2 | 0.001 to 0.1 µM | ≥ 10 µM | 1 to 15 nM |  |  |  |  |  |
| COc1cnc(Cl)cc1-c1cc(C)ncc1C(=O)Nc1nc2c(s1)CN(C(=O)c1c(Cl)cnn1C(C)C)C2 | 0.001 to 0.1 µM | ≥ 10 µM | 1 to 15 nM |  |  |  |  |  |
| COc1cnc(Cl)cc1-c1cc(C)ncc1C(=O)Nc1nc2c(s1)CN(C(=O)c1cnn(C)c1Cl)C2 | 0.001 to 0.1 µM | ≥ 10 µM | 1 to 15 nM |  |  |  |  |  |
| 2′-chloro-N-(5-(6- (difluoromethoxy)nicotinoyl)-5,6- dihydro-4H-pyrrolo[3,4-d]thiazol-2-yl)- 5′-methoxy-6-methyl-[4,4′-bipyridine]- 3-carboxamide [Example 32] |  |  | 1 to 15 nM | 0.001 to 0.1 µM | 2 to 5 µM |  |  |  |
| 4-(5-Cyano-2-methoxyphenyl)-N-(5-(4-(difluoromethyl)-2-methoxybenzoyl)-5,6-dihydro-4H-pyrrolo[3,4-d]thiazol-2-yl)-6-methylnicotinamide [Example 481] |  |  |  |  |  | 0.001 to 0.1 µM | ≥ 10 µM | 1 to 15 nM |
| COc1cnc(Cl)cc1-c1cc(C)ncc1C(=O)Nc1nc2c(s1)CN(C(=O)C1CC(C(F)F)C1)C2 (mixture of isomers) [Example 201] | 0.1 to 0.25 µM | ≥ 10 µM | 1 to 15 nM |  |  |  |  |  |
| COc1cnc(Cl)cc1-c1cc(C)ncc1C(=O)Nc1nc2c(s1)CN(C(=O)c1c(C(F)F)cnn1C)C2 (racemic) | 0.001 to 0.1 µM | ≥ 10 µM | 1 to 15 nM |  |  |  |  |  |
| COc1cnc(Cl)cc1-c1cc(C)ncc1C(=O)Nc1nc2c(s1)CN(C(=O)c1cnn(C(F)F)c1)C2 (racemic) | 0.001 to 0.1 µM | 0.001 to 0.5 µM | 1 to 15 nM |  |  |  |  |  |
| COc1ccccc1-c1cc(C)ncc1C(=O)Nc1nc2c(s1)CN(C(=O)C1CC(OC(F)F)C1)C2 (racemic) | 0.25 to 0.5 µM | ≥ 10 µM | 1 to 15 nM |  |  |  |  |  |
| COc1ccc(C#N)cc1-c1cc(C)ncc1C(=O)Nc1nc2c(s1)CN(C(=O)c1cccnc1OC)C2 (racemic) [Example 127] | 0.001 to 0.1 µM | ≥ 10 µM | 1 to 15 nM |  |  |  |  |  |
